Activity calls are given as the source filed them. The calls are words filed in the database; no cut-off is given here.
Assays:
Aedes aegypti [1] = experiment: Mosquitocidal activity against Aedes aegypti fourth instar larvae; type: functional
Aedes aegypti [2] = experiment: Mosquitocidal activity against Aedes aegypti fourth instar larvae assessed as mortality at 50 ug/mL after 18 hrs; type: functional, organism-based
[3] = biological target: T1, DNA topoisomerase 2 (Saccharomyces cerevisiae S288c) (UniProt P06786); experiment: Inhibition of topoisomerase 2 in Saccharomyces cerevisiae JN394t-1 assessed as inhibition of growth at 50 ug/mL after 72 hrs
T1 sequence (whole entry): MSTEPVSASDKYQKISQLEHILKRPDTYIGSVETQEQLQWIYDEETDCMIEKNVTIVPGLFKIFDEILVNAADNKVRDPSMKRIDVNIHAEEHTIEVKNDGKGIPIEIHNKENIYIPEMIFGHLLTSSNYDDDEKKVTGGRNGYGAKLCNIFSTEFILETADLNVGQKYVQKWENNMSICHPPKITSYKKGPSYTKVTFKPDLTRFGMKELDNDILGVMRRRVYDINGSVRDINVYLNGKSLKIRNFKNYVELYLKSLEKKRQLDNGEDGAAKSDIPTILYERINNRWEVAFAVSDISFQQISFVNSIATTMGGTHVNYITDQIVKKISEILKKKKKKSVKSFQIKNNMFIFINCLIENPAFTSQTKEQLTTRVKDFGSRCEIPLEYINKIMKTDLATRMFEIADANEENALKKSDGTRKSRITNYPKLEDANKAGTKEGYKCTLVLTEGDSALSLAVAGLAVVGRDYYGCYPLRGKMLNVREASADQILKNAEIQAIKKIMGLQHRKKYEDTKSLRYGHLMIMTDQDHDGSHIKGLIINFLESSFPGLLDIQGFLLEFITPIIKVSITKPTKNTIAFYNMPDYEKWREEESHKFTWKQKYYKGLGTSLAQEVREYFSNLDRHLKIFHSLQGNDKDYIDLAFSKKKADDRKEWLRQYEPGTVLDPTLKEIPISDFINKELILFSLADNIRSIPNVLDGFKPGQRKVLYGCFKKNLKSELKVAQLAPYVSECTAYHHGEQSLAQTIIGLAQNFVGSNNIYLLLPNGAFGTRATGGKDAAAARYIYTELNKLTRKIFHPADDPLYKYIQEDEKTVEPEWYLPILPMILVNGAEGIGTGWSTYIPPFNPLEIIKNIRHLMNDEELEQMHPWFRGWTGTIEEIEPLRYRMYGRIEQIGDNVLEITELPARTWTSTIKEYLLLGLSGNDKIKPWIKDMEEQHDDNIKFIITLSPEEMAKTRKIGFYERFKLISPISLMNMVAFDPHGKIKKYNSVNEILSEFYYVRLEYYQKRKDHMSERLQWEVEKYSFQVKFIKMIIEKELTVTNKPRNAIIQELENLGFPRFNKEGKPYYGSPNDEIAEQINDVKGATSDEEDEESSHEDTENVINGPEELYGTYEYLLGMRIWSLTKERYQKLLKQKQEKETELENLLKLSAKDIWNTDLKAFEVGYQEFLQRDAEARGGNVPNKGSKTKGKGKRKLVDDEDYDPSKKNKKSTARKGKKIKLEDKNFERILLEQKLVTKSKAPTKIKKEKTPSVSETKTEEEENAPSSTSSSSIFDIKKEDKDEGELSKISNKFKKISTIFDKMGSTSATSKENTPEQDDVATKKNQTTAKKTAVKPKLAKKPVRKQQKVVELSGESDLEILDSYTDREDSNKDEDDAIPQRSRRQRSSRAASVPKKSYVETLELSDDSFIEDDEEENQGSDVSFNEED

[4] = biological target: T2, DNA topoisomerase 1 (Saccharomyces cerevisiae S288c) (UniProt P04786); experiment: Inhibition of topoisomerase 1 in Saccharomyces cerevisiae JN394t-1 assessed as inhibition of growth at 50 ug/mL after 72 hrs
T2 sequence (whole entry): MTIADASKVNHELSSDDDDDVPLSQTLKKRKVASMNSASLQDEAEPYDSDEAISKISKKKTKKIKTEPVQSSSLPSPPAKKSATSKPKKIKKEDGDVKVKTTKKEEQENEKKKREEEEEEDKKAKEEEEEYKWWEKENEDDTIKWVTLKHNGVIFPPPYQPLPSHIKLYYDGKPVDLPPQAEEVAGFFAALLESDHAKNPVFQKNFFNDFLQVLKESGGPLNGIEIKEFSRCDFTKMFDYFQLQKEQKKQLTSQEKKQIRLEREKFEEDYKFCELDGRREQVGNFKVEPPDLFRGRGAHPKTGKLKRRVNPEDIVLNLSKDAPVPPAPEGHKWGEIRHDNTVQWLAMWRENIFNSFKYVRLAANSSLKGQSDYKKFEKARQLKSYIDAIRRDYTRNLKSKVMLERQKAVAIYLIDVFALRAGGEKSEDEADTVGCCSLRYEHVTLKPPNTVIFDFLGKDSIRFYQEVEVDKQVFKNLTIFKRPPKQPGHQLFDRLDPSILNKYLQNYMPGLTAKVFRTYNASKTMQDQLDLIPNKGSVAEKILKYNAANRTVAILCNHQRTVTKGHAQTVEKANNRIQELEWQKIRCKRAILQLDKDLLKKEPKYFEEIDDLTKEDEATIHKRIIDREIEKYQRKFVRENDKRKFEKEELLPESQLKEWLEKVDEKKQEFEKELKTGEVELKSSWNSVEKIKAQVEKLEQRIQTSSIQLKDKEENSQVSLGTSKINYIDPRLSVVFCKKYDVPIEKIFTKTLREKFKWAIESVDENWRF

[5] = biological target: T1, DNA topoisomerase 2 (Saccharomyces cerevisiae S288c); experiment: Inhibition of topoisomerase 2 in Saccharomyces cerevisiae JN394t2-5 assessed as inhibition of growth at 50 ug/mL after 72 hrs
[6] = biological target: T2, DNA topoisomerase 1 (Saccharomyces cerevisiae S288c); experiment: Inhibition of topoisomerase 1 in Saccharomyces cerevisiae JN394t2-5 assessed as inhibition of growth at 50 ug/mL after 72 hrs
[7] = biological target: T1, DNA topoisomerase 2 (Saccharomyces cerevisiae S288c); experiment: Inhibition of topoisomerase 2 in Saccharomyces cerevisiae JN394 assessed as inhibition of growth at 50 ug/mL after 72 hrs
[8] = biological target: T2, DNA topoisomerase 1 (Saccharomyces cerevisiae S288c); experiment: Inhibition of topoisomerase 1 in Saccharomyces cerevisiae JN394 assessed as inhibition of growth at 50 ug/mL after 72 hrs
Pichia kudriavzevii = experiment: Antimicrobial activity against Candida krusei at 25 ug/mL; type: functional, organism-based
Candida albicans = experiment: Antimicrobial activity against Candida albicans at 1 ug/mL; type: functional, organism-based
Aedes aegypti [9] = experiment: Mosquitocidal activity against Aedes aegypti fourth instar larvae assessed as mortality at 10 ug/mL after 48 hrs; type: functional
Candida parapsilosis = experiment: Antimicrobial activity against Candida parapsilosis at 25 ug/mL; type: functional, organism-based
[10] = biological target: T1, DNA topoisomerase 2 (Saccharomyces cerevisiae S288c); experiment: Inhibition of topoisomerase 2 in Saccharomyces cerevisiae JN394t-1 assessed as inhibition of growth at 25 ug/mL after 72 hrs
[11] = biological target: T1, DNA topoisomerase 2 (Saccharomyces cerevisiae S288c); experiment: Inhibition of topoisomerase 2 in Saccharomyces cerevisiae JN394t2-5 assessed as inhibition of growth at 25 ug/mL after 72 hrs
[12] = biological target: T1, DNA topoisomerase 2 (Saccharomyces cerevisiae S288c); experiment: Inhibition of topoisomerase 2 in Saccharomyces cerevisiae JN394 assessed as inhibition of growth at 25 ug/mL after 72 hrs
[13] = biological target: T2, DNA topoisomerase 1 (Saccharomyces cerevisiae S288c); experiment: Inhibition of topoisomerase 1 in Saccharomyces cerevisiae JN394t-1 assessed as inhibition of growth at 25 ug/mL after 72 hrs
[14] = biological target: T2, DNA topoisomerase 1 (Saccharomyces cerevisiae S288c); experiment: Inhibition of topoisomerase 1 in Saccharomyces cerevisiae JN394t2-5 assessed as inhibition of growth at 25 ug/mL after 72 hrs
[15] = biological target: T2, DNA topoisomerase 1 (Saccharomyces cerevisiae S288c); experiment: Inhibition of topoisomerase 1 in Saccharomyces cerevisiae JN394 assessed as inhibition of growth at 25 ug/mL after 72 hrs

SMILES | Activity [3] | Activity [4] | Activity [5] | Activity [6] | Activity [7] | Activity [8] | also measured
CC(C)=CC(=O)CC(C)c1ccc(C)cc1 (centres undefined) |  |  |  |  |  |  | LD100 (Aedes aegypti [1]): 50 µg/mL; Activity (Aedes aegypti [2]): Active
COc1cc(/C=C/C(O)=C/C(=O)/C=C/c2ccc(O)cc2)ccc1O | Active | Active | Active | Active | Active | Active | 
C=C1CC[C@H]2C(C)(C)CCC[C@]2(C)[C@H]1C/C=C(\C=O)CC=O [LABDADIENEDIAL] |  |  |  |  |  |  | Activity (Pichia kudriavzevii): Active; Activity (Candida albicans): Active; Activity (Aedes aegypti [9]): 100%; Activity (Candida parapsilosis): Active
O=C(/C=C/c1ccc(O)cc1)CC(=O)/C=C/c1ccc(O)cc1 | Active | Active | Active | Active | Active | Active | Activity [10]: Active; Activity [11]: Active; Activity [12]: Active; Activity [13]: Active; Activity [14]: Active; Activity [15]: Active
